Columns and labels:
[1] = test system: type II iodothyronine deiodinase, (Dio2); experiment: Intestinal gene expression: Dio2; type: in vivo; conditions: mouse intestine; diet 1 ppm Se, 100 days; vs selenium deficient
Excerpt: (§1) Animal Care. Male C57BL/6J mice were housed singly and started on the experimental diets described below immediately after weaning (21 days of age). The mice were maintained in the Shared Aging Rodent Facility at the William S. Middleton Memorial Veterans Administration Medical Center (Madison, Wis.). Temperature and humidity were maintained at constant levels. Room light was controlled to provide 12-hr cycles of light and dark.
(§2) Experimental diets were created by Harlan Teklad (Madison, Wis.). Selenium content of the diets was determined by Covance Inc. (Madison, Wis.). Five (5) animals were included in each of the following treatment groups: a diet deficient in selenium (SD); a diet supplemented with selenomethionine (SM, obtained from Sigma, St. Louis, Mo.) such that the final selenium content of the diet was one (1) part per million; a diet supplemented with sodium selenite (SS, Sigma) such that the final concentration of selenium in this diet was one (1) part per million; or a diet supplemented with the yeast selenium SEL-PLEX (SP, Alltech, Lexington, Ky), such that the final concentration of selenium in this diet was one (1) part per million. SEL-PLEX. […]
(§3) Tissue sample preparation and microarray analysis. […] For intestinal expression studies, the intestine was flushed twice with saline solution and small intestine was measured and divided in three equal segments. […]

[2] = test system: sprouty homolog 2 gene (Spry2); experiment: Intestinal gene expression: Spry2; type: in vivo; conditions: mouse intestine; diet 1 ppm Se, 100 days; relative to Se-deficient controls
Excerpt: as §1, §2, §3

[3] = test system: Thioredoxin Reductase 1 (Trx-1); experiment: Intestinal gene expression: Thioredoxin Reductase 1; type: in vivo; conditions: mouse intestine; diet 1 ppm Se, 100 days; vs selenium deficient; all p < 0.01
Excerpt: as §1, §2, §3

[4] = test system: selenoprotein N1 (Sepn1); experiment: Intestinal gene expression: selenoprotein N1; type: in vivo; conditions: mouse intestine; diet 1 ppm Se, 100 days; vs selenium deficient
Excerpt: as §1, §2, §3

[5] = Body weight of mice on selenium diets; type: in vivo, mouse; conditions: diet 1 ppm Se, 100 days; compared across diets incl. selenium deficient diet (FIG. 1)
Excerpt: as §1
Experimental diets were created by Harlan Teklad (Madison, Wis.). Selenium content of the diets was determined by Covance Inc. (Madison, Wis.). […]
Thus, it was an object of the present invention to determine whether compositions and methods of the present invention could alter the expression levels (e.g., niRNA levels) of various genes. One group of genes analyzed were genes classically associated with selenium. As described above, the expression levels of genes were analyzed between mice with and without dietary selenium, or, between mice fed different sources of selenium) (See, e.g., Table 1, below).

[6] = test system: SOD1; experiment: Intestinal gene expression: SOD1; type: in vivo; conditions: mouse intestine; diet 1 ppm Se, 100 days; vs selenium deficient
Excerpt: as §1, §2, §3

[7] = test system: Glutathione S-transferase, mu1 (Gstm1); experiment: Intestinal gene expression: Gstm1; type: in vivo; conditions: mouse intestine; diet 1 ppm Se, 100 days; vs Se-deficient diets; negative = down; NS = not significant
Excerpt: as §1, §2, §3

[8] = test system: Glutathione S-transferase, mu3 (Gstm3); experiment: Intestinal gene expression: Gstm3; type: in vivo; conditions: mouse intestine; diet 1 ppm Se, 100 days; vs Se-deficient diets; negative = down; NS = not significant
Excerpt: as §1, §2, §3

[9] = test system: Cu chaperone for SOD, (CCS); experiment: Intestinal gene expression: Cu chaperone for SOD; type: in vivo; conditions: mouse intestine; diet 1 ppm Se, 100 days; vs selenium deficient
Excerpt: as §1, §2, §3

Structure (SMILES)	Dio2 expression, down-regulation [1]	Spry2 gene expression, reduction [2]	fold increase in expression of the Thioredoxin Reductase 1 gene [3]	selenoprotein N1 (Sepn1) expression level, increased [4]	body weights of mice [5]	enhanced expression of SOD1 [6]	FC Gstm1 expression [7]	FC Gstm3 expression [8]	enhancement in the expression of the Cu chaperone for SOD (CCS) [9]
C[Se]CC[C@H](N)C(=O)O [SeM, selenomethionine]	no ability to alter the expression levels	no alteration	1.8 fold	not significantly affected	–	–	–	–	–
O=[Se](O)O [Sod-sel, sodium selenite]	–	–	–	–	No significant differences	1.92 fold	−2.4 fold	−2.7 fold	1.28 fold

From patent US20070155687A1, “Methods and compositions for altering cell function” (Alltech, Inc., priority 2005, published 2007)
